Data from article PMC6718736, “Validation of in vitro methods for human cytochrome P450 enzyme induction: Outcome of a multi-laboratory study” (Toxicology in Vitro, 2019).
“Also recorded” adds a separate entry of the source. Read-outs that look alike come from different tables or passages of the source. Each block holds one compound with its values, some of them ahead of it.

Tests used:
[1] = cited from earlier work
[2] = Solubility by visual inspection (DMSO stock solution and assay medium); type: physicochemical; details: assay medium
Experimental: The SOPs relied on visual inspection for solubility observation. […] The absence of precipitation in the medium was checked pre- and post-incubation (24 hours) by centrifugation of the sample and observation of any precipitation (pellet residue).

[3] = Solubility by nephelometry (EURL ECVAM); type: physicochemical; details: ECVAM nephelometry, ^2 = solubility limit
Description: In addition to the visual inspection performed by the validation laboratories as described in the SOP, EURL ECVAM introduced nephelometry for systematic solubility determination of the 13 validation set chemicals. Nephelometry uses a laser beam and the principle of Tyndall effect light scatter to detect turbidity due to insolubility. The nephelometer method used formazin as reference item (1, 5, 10 and 20 nephelometric turbidity units (NTU)) to calculate the relative turbidity (RTU) of the validation set of chemicals. To the naked eye, 20 NTU is perceptible, while the nephelometer was sensitive to 5 NTU, with 1 NTU equivalent to background (solvent/medium blank).

[4] = tested on: CYP1A2; details: cited from earlier work; for Induction in vivo: CYP1A2, human, ref Table 1
[5] = tested on: CYP2B6; experiment: CYP2B6 enzyme induction assay in cryopreserved HepaRG cells (bupropion probe, LC/MS); type: in vitro ADME, human; details: for Assigned classification CYP2B6: HepaRG; for Prediction in vivo inducer: Cmax/F2 >0.5 criterion; as to Assigned classification CYP2B6: key: 1=Positive=inducer; 0=Negative=non-inducer
[6] = tested on: CYP1A2; experiment: CYP1A2 enzyme induction assay in cryopreserved primary human hepatocytes (PHH); type: in vitro ADME; details: for Prediction in vivo inducer / Induction in vitro: CYP1A2, PHH; for Prediction in vivo inducer: Cmax/F2 >0.5 criterion; for Induction in vitro: positive in one donor in each of the three laboratories; for Assigned classification CYP1A2: PHH;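 as to Assigned classification CYP1A2: code 1 means positive inducer and 0 means non-inducer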
[7] = tested on: CYP3A4; details: CYP3A4, human in vivo reference classification (Table 11); cited from earlier work
[8] = tested on: CYP3A4; experiment: CYP3A4 enzyme induction assay in cryopreserved HepaRG cells (midazolam probe, LC/MS); type: in vitro ADME, human; details: for Assigned classification CYP3A4: HepaRG; as to Assigned classification CYP3A4: key: 1=Positive=inducer; 0=Negative=non-inducer
[9] = tested on: CYP3A4; experiment: CYP3A4 enzyme induction assay in cryopreserved primary human hepatocytes (PHH); details: for Assigned classification CYP3A4: PHH
[10] = tested on: CYP1A2; experiment: CYP1A2 enzyme induction assay in cryopreserved HepaRG cells (phenacetin probe, LC/MS); type: in vitro ADME, human; details: for Prediction in vivo inducer: Cmax/F2 >0.5 criterion; for Induction in vitro: positive in one batch in each of the three laboratories; for Assigned classification CYP1A2: HepaRG; as to Assigned classification CYP1A2: key: 1=Positive=inducer; 0=Negative=non-inducer
[11] = tested on: CYP2B6; experiment: CYP2B6 enzyme induction assay in cryopreserved primary human hepatocytes (PHH); type: in vitro ADME; details: for Assigned classification CYP2B6: PHH;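 as to Assigned classification CYP2B6: code 1 means positive inducer and 0 means non-inducer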
[12] = tested on: CYP2B6; details: cited from earlier work
[13] = human in vivo plasma concentration, normal dose
[14] = human in vivo, normal dose (Table 10)
[15] = human in vivo, CYP named without remark = induced, ref references in the cell, Washington University database, Hoffmann et al. (2014), Pelkonen et al. (2008), Hukkanen et al. (2012)

- HepaRG medium stability ([2]; Lab 1, visual observation): 40 µg/mL
- HepaRG medium stability ([2]; Lab 2, visual observation): 40 µg/mL
- HepaRG medium stability ([2]; Lab 3, visual observation): 40 µg/mL
- PHH medium stability ([2]; Lab 4, visual observation): 40 µg/mL
- PHH medium stability ([2]; Lab 5, visual observation): 40 µg/mL
- PHH medium stability ([2]; Lab 6, visual observation): 20 µg/mL
- HepaRG medium stability ([3]; HepaRG medium): 40 µg/mL
- PHH medium stability ([3]; PHH medium): 40 µg/mL
SMILES: CC1(C)S[C@@H]2[C@H](NC(=O)Cc3ccccc3)C(=O)N2[C@H]1C(=O)O [Penicillin G sodium]
- Cmax [1, 13]: 36 µM
- Cmax [1, 14]: 36 µM

SMILES: C[C@@H]1CC[C@H]2[C@@H](C)C(=O)O[C@@H]3O[C@@]4(C)CC[C@@H]1[C@]32OO4 [Artemisinin]
- Cmax [1, 13]: 1 to 2 µM
- Cmax [1, 14]: 1 to 2 µM

- Assigned classification CYP2B6 ([5]; Lab 1, batch 20): 0
- Assigned classification CYP2B6 ([5]; Lab 1, batch 35): 0
- Assigned classification CYP2B6 ([5]; Lab 1, batch 36): 0
- Assigned classification CYP2B6 ([5]; Lab 2, batch 20): 0
- Assigned classification CYP2B6 ([5]; Lab 2, batch 35): 0
- Assigned classification CYP2B6 ([5]; Lab 2, batch 36): 0
- Assigned classification CYP2B6 ([5]; Lab 3, batch 20): 0
- Assigned classification CYP2B6 ([5]; Lab 3, batch 35): 0
- Assigned classification CYP2B6 ([5]; Lab 3, batch 36): 0
- Prediction in vivo inducer [6]: No
- Induction in vitro [6]: No
- Assigned classification CYP1A2 ([6]; Lab 1, batch 0 6 A): 0
- Assigned classification CYP1A2 ([6]; Lab 1, batch 4 0 8): 1
- Assigned classification CYP1A2 ([6]; Lab 1, batch 8 0 8): 1
- Assigned classification CYP1A2 ([6]; Lab 2, batch 0 6 A): 0
- Assigned classification CYP1A2 ([6]; Lab 2, batch 4 0 8): 0
- Assigned classification CYP1A2 ([6]; Lab 2, batch 8 0 8): 0
- Assigned classification CYP1A2 ([6]; Lab 3, batch 0 6 A): 1
- Assigned classification CYP1A2 ([6]; Lab 3, batch 4 0 8): 0
- Assigned classification CYP1A2 ([6]; Lab 3, batch 8 0 8): 0
- Induction in vitro ([8]; CYP3A4, HepaRG cells): No
- Prediction in vivo inducer ([8]; CYP3A4, HepaRG cells): No
- Assigned classification CYP3A4 ([8]; Lab 1, batch 20): 0
- Assigned classification CYP3A4 ([8]; Lab 1, batch 35): 0
- Assigned classification CYP3A4 ([8]; Lab 1, batch 36): 0
- Assigned classification CYP3A4 ([8]; Lab 2, batch 20): 0
- Assigned classification CYP3A4 ([8]; Lab 2, batch 35): 0
- Assigned classification CYP3A4 ([8]; Lab 2, batch 36): 0
- Assigned classification CYP3A4 ([8]; Lab 3, batch 20): 0
- Assigned classification CYP3A4 ([8]; Lab 3, batch 35): 0
- Assigned classification CYP3A4 ([8]; Lab 3, batch 36): 0
- Induction in vitro ([9]; CYP3A4, PHH): No
- Prediction in vivo inducer ([9]; CYP3A4, PHH): No
- Prediction in vivo inducer ([9]; CYP3A4, PHH, Cmax/F2 >0.5 criterion): predicted to be a non-inducer in vivo
- Assigned classification CYP3A4 ([9]; Lab 1, batch 0 6 A): 0
- Assigned classification CYP3A4 ([9]; Lab 1, batch 4 0 8): 0
- Assigned classification CYP3A4 ([9]; Lab 1, batch 8 0 8): 0
- Assigned classification CYP3A4 ([9]; Lab 2, batch 0 6 A): 1
- Assigned classification CYP3A4 ([9]; Lab 2, batch 4 0 8): 0
- Assigned classification CYP3A4 ([9]; Lab 2, batch 8 0 8): 0
- Assigned classification CYP3A4 ([9]; Lab 3, batch 0 6 A): 1
- Assigned classification CYP3A4 ([9]; Lab 3, batch 4 0 8): 0
- Assigned classification CYP3A4 ([9]; Lab 3, batch 8 0 8): 0
- Prediction in vivo inducer ([10]; CYP1A2, HepaRG cells): No
- Induction in vitro ([10]; CYP1A2, HepaRG cells): No
- Assigned classification CYP1A2 ([10]; Lab 1, batch 20): 0
- Assigned classification CYP1A2 ([10]; Lab 1, batch 35): 0
- Assigned classification CYP1A2 ([10]; Lab 1, batch 36): 0
- Assigned classification CYP1A2 ([10]; Lab 2, batch 20): 0
- Assigned classification CYP1A2 ([10]; Lab 2, batch 35): 1
- Assigned classification CYP1A2 ([10]; Lab 2, batch 36): 0
- Assigned classification CYP1A2 ([10]; Lab 3, batch 20): 0
- Assigned classification CYP1A2 ([10]; Lab 3, batch 35): 0
- Assigned classification CYP1A2 ([10]; Lab 3, batch 36): 0
- Assigned classification CYP2B6 ([11]; Lab 1, batch 0 6 A): 0
- Assigned classification CYP2B6 ([11]; Lab 1, batch 4 0 8): 0
- Assigned classification CYP2B6 ([11]; Lab 1, batch 8 0 8): 0
- Assigned classification CYP2B6 ([11]; Lab 2, batch 0 6 A): 0
- Assigned classification CYP2B6 ([11]; Lab 2, batch 4 0 8): 0
- Assigned classification CYP2B6 ([11]; Lab 2, batch 8 0 8): 0
- Assigned classification CYP2B6 ([11]; Lab 3, batch 0 6 A): 1
- Assigned classification CYP2B6 ([11]; Lab 3, batch 4 0 8): 0
- Assigned classification CYP2B6 ([11]; Lab 3, batch 8 0 8): 0
SMILES: COCCc1ccc(OCC(O)CNC(C)C)cc1 (stereo not shown) [Metoprolol]
- Induction in vivo [4]: No
- Cmax [1, 13]: 0.14 to 0.38 µM
- Cmax [1, 14]: 0.14 to 0.38 µM
- Induction in vivo [7]: No

- Prediction in vivo inducer ([5]; CYP2B6, HepaRG cells): Yes
- Prediction in vivo inducer ([5]; CYP2B6, HepaRG cells, listed as rifampicin): correctly classified
- F2 ([5]; CYP2B6, HepaRG cells, in vitro concentration producing 2-fold induction): 0.6 to 1.80 µM
- Induction in vitro ([5]; CYP2B6, HepaRG cells, positive in one batch in each of the three laboratories): Yes
- Assigned classification CYP2B6 ([5]; Lab 1, batch 20): 0
- Assigned classification CYP2B6 ([5]; Lab 1, batch 35): 1
- Assigned classification CYP2B6 ([5]; Lab 1, batch 36): 0
- Assigned classification CYP2B6 ([5]; Lab 2, batch 20): 1
- Assigned classification CYP2B6 ([5]; Lab 2, batch 35): 0
- Assigned classification CYP2B6 ([5]; Lab 2, batch 36): 1
- Assigned classification CYP2B6 ([5]; Lab 3, batch 20): 0
- Assigned classification CYP2B6 ([5]; Lab 3, batch 35): 0
- Assigned classification CYP2B6 ([5]; Lab 3, batch 36): 1
- Prediction in vivo inducer [6]: No
- Induction in vitro [6]: No
- Assigned classification CYP1A2 ([6]; Lab 1, batch 0 6 A): 0
- Assigned classification CYP1A2 ([6]; Lab 1, batch 4 0 8): 0
- Assigned classification CYP1A2 ([6]; Lab 1, batch 8 0 8): 0
- Assigned classification CYP1A2 ([6]; Lab 2, batch 0 6 A): 0
- Assigned classification CYP1A2 ([6]; Lab 2, batch 4 0 8): 0
- Assigned classification CYP1A2 ([6]; Lab 2, batch 8 0 8): 1
- Assigned classification CYP1A2 ([6]; Lab 3, batch 0 6 A): 1
- Assigned classification CYP1A2 ([6]; Lab 3, batch 4 0 8): 0
- Assigned classification CYP1A2 ([6]; Lab 3, batch 8 0 8): 0
- Prediction in vivo inducer ([10]; CYP1A2, HepaRG cells): Yes
- F2 ([10]; CYP1A2, HepaRG cells, in vitro concentration producing 2-fold induction): 0.20 to 0.60 µM
- Induction in vitro ([10]; CYP1A2, HepaRG cells): Yes
- Assigned classification CYP1A2 ([10]; Lab 1, batch 20): 1
- Assigned classification CYP1A2 ([10]; Lab 1, batch 35): 1
- Assigned classification CYP1A2 ([10]; Lab 1, batch 36): 1
- Assigned classification CYP1A2 ([10]; Lab 2, batch 20): 1
- Assigned classification CYP1A2 ([10]; Lab 2, batch 35): 1
- Assigned classification CYP1A2 ([10]; Lab 2, batch 36): 1
- Assigned classification CYP1A2 ([10]; Lab 3, batch 20): 1
- Assigned classification CYP1A2 ([10]; Lab 3, batch 35): 1
- Assigned classification CYP1A2 ([10]; Lab 3, batch 36): 1
- F2 ([11]; CYP2B6, PHH): 0.2 µM
- Induction in vitro ([11]; CYP2B6, PHH): Yes
- Prediction in vivo inducer ([11]; CYP2B6, PHH): Yes
- Prediction in vivo inducer ([11]; CYP2B6, PHH, Cmax/F2 >0.5 criterion): positive
- Assigned classification CYP2B6 ([11]; Lab 1, batch 0 6 A): 1
- Assigned classification CYP2B6 ([11]; Lab 1, batch 4 0 8): 1
- Assigned classification CYP2B6 ([11]; Lab 1, batch 8 0 8): 1
- Assigned classification CYP2B6 ([11]; Lab 2, batch 0 6 A): 1
- Assigned classification CYP2B6 ([11]; Lab 2, batch 4 0 8): 0
- Assigned classification CYP2B6 ([11]; Lab 2, batch 8 0 8): 1
- Assigned classification CYP2B6 ([11]; Lab 3, batch 0 6 A): 1
- Assigned classification CYP2B6 ([11]; Lab 3, batch 4 0 8): 1
- Assigned classification CYP2B6 ([11]; Lab 3, batch 8 0 8): 1
SMILES: CO[C@H]1/C=C/O[C@@]2(C)Oc3c(C)c(O)c4c(O)c(c(/C=N/N5CCN(C)CC5)c(O)c4c3C2=O)NC(=O)/C(C)=C\C=C\[C@H](C)[C@H](O)[C@@H](C)[C@@H](O)[C@@H](C)[C@H](OC(C)=O)[C@@H]1C [Rifampicin]
- Induction in vivo [4]: Yes
- CYP induction in vivo literature reference: CYP1A2 [4, 15]: CYP1A2
- Cmax [1, 13]: 8 to 12 µM
- Cmax [1, 14]: 8 to 12 µM
- Prediction in vivo inducer ([6]; listed as rifampicin): non-inducer; also recorded: missed the in vivo prediction
- Induction in vivo ([12]; CYP2B6, human in vivo reference classification): Yes
- Induction in vivo ([12]; CYP2B6, human, ref Table 1): Yes
- CYP induction in vivo literature reference: CYP2B6 [12, 15]: CYP2B6
